Among the data in PubChem BioAssay (NCI) are TGI and GI50 values, retold here.

Several values for one entry are separate records, joined by “and”; a condition that tells them apart may be missing. Equal values may be shown once.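 Values below derive from 48-hour exposures of cells grown in 96-well plates, with endpoints linearly interpolated between the two concentrations bracketing the appropriate inhibition level. Here, GI50 denotes the concentration required for 50% inhibition of growth. At the TGI there is no net growth.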

Some test systems named below: SF-268 CNS; HT29 colon; UACC-257 melanoma; SK-MEL-5 melanoma; 786-0 renal; SF-295 CNS; HCC-2998 colon; A549 NSCLC; HCT-15 colon; SNB-75 CNS.
Holding throughout (assay): NCI anticancer screen, dose series, 48 h

With `O=C(NCc1ccccc1)c1n[nH][nH]c1=O`, the TGI in the experiment with SF-268 CNS, in the experiment on HT29 colon, in the experiment on UACC-257 melanoma, in the experiment with SK-MEL-5 melanoma, with 786-0 renal and in the experiment on SF-295 CNS was more than 100 µM in each case. Moreover, the TGI in the experiment on HCC-2998 colon, with A549 NSCLC, with HCT-15 colon and in the experiment on SNB-75 CNS was more than 100 µM each time.
As to `Cn1c(=O)c2c(nc3n2CC(C(=O)O)N3)n(C)c1=O` (stereo not given), the TGI in the experiment with SF-268 CNS, in the experiment on HT29 colon, with UACC-257 melanoma, with SK-MEL-5 melanoma, with 786-0 renal and in the experiment on SF-295 CNS was more than 100 µM throughout. The TGI with HCC-2998 colon, in the experiment with A549 NSCLC, in the experiment on HCT-15 colon and with SNB-75 CNS was more than 100 µM each time.
Consider `CCC(=O)NCC1CCCN2CCCCC12` (stereo not given), for which the TGI in the experiment with SF-268 CNS, in the experiment with HT29 colon, in the experiment on UACC-257 melanoma, in the experiment on SK-MEL-5 melanoma, with 786-0 renal and with SF-295 CNS was more than 100 µM in each case. Also, the TGI with HCC-2998 colon, with A549 NSCLC, with HCT-15 colon and with SNB-75 CNS was more than 100 µM each time.
For the molecule `O=C(C1OC1c1ccc(Br)cc1O)C12CC3CC(CC(C3)C1)C2` (stereo not given), the TGI in the experiment with SF-268 CNS was more than 100 µM; with HT29 colon it was more than 100 µM; in the experiment on UACC-257 melanoma it was more than 100 µM; in the experiment with SK-MEL-5 melanoma it was 56.8 µM; with 786-0 renal, 32.4 µM; with SF-295 CNS it was 43 µM. Moreover, the TGI in the experiment with HCC-2998 colon is 47.6 µM; in the experiment on A549 NSCLC, more than 100 µM; with HCT-15 colon, 47 µM; in the experiment on SNB-75 CNS it was 58.1 µM.
With `c1ccc2c(c1)Cn1c-2nc2ccccc21`, the TGI in the experiment on SF-268 CNS, in the experiment on HT29 colon, in the experiment on UACC-257 melanoma, with SK-MEL-5 melanoma, with 786-0 renal and in the experiment on SF-295 CNS was more than 100 µM throughout. In addition, the TGI is more than 100 µM in the experiment with HCC-2998 colon, more than 100 µM with A549 NSCLC, more than 100 µM in the experiment on HCT-15 colon and 73.3 µM in the experiment with SNB-75 CNS.
For the molecule `Nc1nc2c(c(-c3cccc(Cl)c3)n1)COC/C2=C\c1cccc(Cl)c1`, the TGI with SF-268 CNS, with HT29 colon, in the experiment on UACC-257 melanoma, in the experiment with SK-MEL-5 melanoma, in the experiment with 786-0 renal and in the experiment with SF-295 CNS was more than 100 µM throughout. Besides, the TGI with HCC-2998 colon, in the experiment with HCT-15 colon and in the experiment on SNB-75 CNS was more than 100 µM in each case.
Take `Cc1ccc(-c2cc(-c3ccco3)c(C#N)c(=S)n2C2OC(CO)C(O)C(O)C2O)cc1` (stereo not given): the GI50 was 44.8 µM in the experiment on SF-268 CNS; 5.75 µM and 14.9 µM in the experiment with SK-MEL-5 melanoma; 11.8 µM and 28.6 µM in the experiment on SF-295 CNS; 21.5 µM and 50.7 µM in the experiment with A549 NSCLC. Also, the TGI is more than 100 µM with SF-268 CNS; more than 100 µM in the experiment with HT29 colon; more than 100 µM in the experiment with UACC-257 melanoma; 18.2 µM and 30.8 µM in the experiment with SK-MEL-5 melanoma; more than 100 µM in the experiment with 786-0 renal; 31.3 µM and > 100 µM with SF-295 CNS. Moreover, the TGI in the experiment on HCC-2998 colon is more than 100 µM; in the experiment with A549 NSCLC, 65.8 µM and > 100 µM; in the experiment on HCT-15 colon it was more than 100 µM; in the experiment on SNB-75 CNS, more than 100 µM.
Take `O=c1[nH]c(=S)[nH]c2c1C(c1ccc([N+](=O)[O-])cc1)c1c([nH]c(=S)[nH]c1=O)O2`: the TGI in the experiment with HT29 colon, in the experiment on UACC-257 melanoma, with SK-MEL-5 melanoma, with 786-0 renal, with SF-295 CNS and with A549 NSCLC was more than 100 µM throughout. The same molecule yielded a TGI in the experiment with HCT-15 colon of more than 100 µM.
As for `[N-]=[N+]=NC(c1ccccc1)(c1ccccc1)c1ccccc1`, the TGI in the experiment with SF-268 CNS was 35.7 µM; in the experiment with HT29 colon it was 32.6 µM; with UACC-257 melanoma, 31.4 µM; in the experiment on SK-MEL-5 melanoma, 26.8 µM; in the experiment on 786-0 renal it was 31.5 µM; in the experiment with SF-295 CNS, 27.1 µM. Moreover, the TGI stood at 30.5 µM in the experiment with HCC-2998 colon, 34.3 µM in the experiment with A549 NSCLC, 40.5 µM in the experiment on HCT-15 colon and 34.4 µM with SNB-75 CNS.
Consider `C(=C(c1ccc(OC2CCCCO2)cc1)c1ccc(OC2CCCCO2)cc1)c1ccccc1` (stereo not given), for which the TGI was 5.31 µM in the experiment with SF-268 CNS; 1.28 µM with HT29 colon; 1.66 µM with UACC-257 melanoma; 1.78 µM in the experiment with SK-MEL-5 melanoma; 1.62 µM in the experiment on 786-0 renal; 2.51 µM in the experiment with SF-295 CNS. In addition, the TGI is 1.97 µM with HCC-2998 colon, 1.69 µM in the experiment on A549 NSCLC and 2.13 µM with SNB-75 CNS.
Consider `CC(=O)N(C(=O)CC(=O)N1N=C(c2ccccc2)C(N=Nc2ccccc2[N+](=O)[O-])C1=O)c1ccc(Cl)cc1` (stereo not given), for which the TGI in the experiment with SF-268 CNS, with HT29 colon, in the experiment with UACC-257 melanoma, in the experiment with SK-MEL-5 melanoma, in the experiment on 786-0 renal and in the experiment with SF-295 CNS was more than 10 µM in each case. Also, the TGI in the experiment with HCC-2998 colon, in the experiment on A549 NSCLC, in the experiment with HCT-15 colon and with SNB-75 CNS was more than 10 µM each time.
For the molecule `COc1ccc2[nH]cc(/C=C(/C)c3ccncc3)c2c1`, the TGI in the experiment on SF-268 CNS is more than 100 µM; in the experiment with HT29 colon, 13.1 µM and 10.9 µM; in the experiment with UACC-257 melanoma, 32.8 µM and 26.4 µM; in the experiment with SK-MEL-5 melanoma, 9.24 µM; with SF-295 CNS it was 12.1 µM and 32.8 µM; in the experiment on HCC-2998 colon it was 95.3 µM. For the same molecule, the TGI with A549 NSCLC is more than 100 µM; in the experiment on HCT-15 colon, 18.7 µM and 14 µM; in the experiment on SNB-75 CNS, 29.5 µM and 7.19 µM. In addition, the GI50 is 3.64 µM with HT29 colon; 8.36 µM in the experiment on UACC-257 melanoma; 3.63 µM with SF-295 CNS; 5.48 µM with A549 NSCLC; 0.551 µM in the experiment with HCT-15 colon; 4.93 µM in the experiment with SNB-75 CNS.
With `COc1ccc(CN2C(=O)/C(=C\c3cc(OC)c(OC)c(OC)c3)c3ccccc32)cc1`, the GI50 in the experiment with SF-268 CNS is 2.65 µM; with HT29 colon, 1.68 µM; in the experiment on UACC-257 melanoma it was 2.15 µM; in the experiment with SK-MEL-5 melanoma, 2.51 µM; in the experiment with SF-295 CNS, 3.79 µM; with HCC-2998 colon, 1.78 µM. Further, the GI50 was 2.51 µM in the experiment with A549 NSCLC, 1.9 µM in the experiment with HCT-15 colon and 4.08 µM with SNB-75 CNS. Further, the TGI with SF-268 CNS is 7.93 µM; in the experiment on HT29 colon it was 3.79 µM; in the experiment on UACC-257 melanoma, 6.67 µM; in the experiment with SK-MEL-5 melanoma it was 6.63 µM; with SF-295 CNS it was 35.8 µM; in the experiment on HCC-2998 colon, 3.31 µM. For the same molecule, the values for the TGI in the experiment on A549 NSCLC, in the experiment with HCT-15 colon and in the experiment with SNB-75 CNS were more than 100 µM, 3.86 µM and more than 100 µM, respectively.
`NC(=O)C(=Cn1c(=S)[nH]c2ccc([N+](=O)[O-])cc21)C(N)=O`: the TGI in the experiment on SF-268 CNS, with HT29 colon, in the experiment with UACC-257 melanoma, with SK-MEL-5 melanoma, in the experiment with 786-0 renal and in the experiment with SF-295 CNS was more than 100 µM each time. The TGI with HCC-2998 colon, in the experiment with A549 NSCLC, with HCT-15 colon and with SNB-75 CNS was more than 100 µM throughout.
`COc1ccc2cc1Oc1ccc(cc1)C[C@H]1c3cc(c(OC)cc3CCN1C)Oc1c(O)c(OC)cc3c1[C@H](C2)N(C)CC3`: the TGI in the experiment on SF-268 CNS came to 150 µM; in the experiment on HT29 colon, 55.2 µM; in the experiment on UACC-257 melanoma it was 30.1 µM; in the experiment with SK-MEL-5 melanoma it was 29.4 µM; in the experiment with SF-295 CNS it was 39.7 µM; with HCC-2998 colon, 24.7 µM. In addition, the TGI in the experiment on A549 NSCLC is 75 µM; in the experiment with HCT-15 colon, 33.5 µM; with SNB-75 CNS it was 52 µM.
Take `CC1CN(C)c2ccccc2N=C1NN` (stereo not given): the TGI with SF-268 CNS, in the experiment with HT29 colon, with UACC-257 melanoma, in the experiment with SK-MEL-5 melanoma, in the experiment with 786-0 renal and in the experiment on SF-295 CNS was more than 100 µM each time. In addition, the TGI with A549 NSCLC and with HCT-15 colon was more than 100 µM throughout.
Take `O=C1C=C[C@@H](COC2OC(CO)C(O)C(O)C2O)O1` (stereo not given in full): the GI50 in the experiment on SF-268 CNS is 4.59 µM; in the experiment on HT29 colon, 1.62 µM; with UACC-257 melanoma, 10.2 µM; in the experiment with A549 NSCLC, 16.7 µM; in the experiment with HCT-15 colon it was 3.22 µM. Also, the TGI in the experiment on SF-268 CNS was 17.8 µM and 62.6 µM; in the experiment on HT29 colon, 5.69 µM and 19.2 µM; with UACC-257 melanoma, 22.8 µM and 27.7 µM; in the experiment on SK-MEL-5 melanoma, 33.9 µM; in the experiment on SF-295 CNS, 41.8 µM and 45 µM; with HCC-2998 colon it was more than 100 µM. Also, the TGI with A549 NSCLC was 76.9 µM and 62.6 µM; in the experiment with HCT-15 colon, 21.5 µM and 16.4 µM; with SNB-75 CNS, 29.7 µM and 31.8 µM.
Regarding `O=C1c2cc3c(cc2-c2c1c1ccc(F)cc1c(=O)n2C[C@H](O)[C@@H](O)[C@H](O)CO)OCO3`, the GI50 was 0.0568 µM with SK-MEL-5 melanoma, 0.14 µM in the experiment on HCC-2998 colon, 0.226 µM in the experiment with A549 NSCLC and 0.183 µM in the experiment with HCT-15 colon. Also, the TGI with SK-MEL-5 melanoma is 0.183 µM; in the experiment on HCC-2998 colon, 0.38 µM; with A549 NSCLC it was more than 100 µM; with HCT-15 colon, 0.766 µM.
On to `COC(=O)[C@@H](O)[C@](O)(CCC(C)C)C(=O)O[C@@H]1C(OC)=C[C@]23CCCN2CCc2cc4c(cc2[C@H]13)OCO4`, for which the TGI with SF-268 CNS stood at 3.37 µM; with HT29 colon, 12.2 µM; with UACC-257 melanoma, 6.06 µM; in the experiment with SK-MEL-5 melanoma, 5.99 µM; in the experiment with SF-295 CNS, 5.68 µM; with HCC-2998 colon, 2.32 µM. Besides, the TGI is 5.19 µM in the experiment with A549 NSCLC, 7.33 µM in the experiment on HCT-15 colon and 14.1 µM in the experiment on SNB-75 CNS.
